Results as given in patent US4666932A, “Formamidine derivatives and pharmaceutical use” (Istituto de Angeli S.p.A., priority 1982, dated 1987).

Assays:
gastric acid secretion = settings: prior art statement; cited from earlier work
histamine H2 -receptors [1] = molecular target: T1, histamine H2 -receptors (Cavia porcellus, UniProt P47747); test: In vitro inhibition of histamine induced tachycardia (positive chronotropic effect), isolated guinea pig atria; type: cell-based; settings: 32° C., pH 7.4, 30 minutes contact before histamine 10^-6 g.ml^-1
T1 construct: isolated guinea pig atria suspended in an organ bath (50 ml); from tissue; host or cells: isolated guinea pig atria
T1 sequence (P47747 whole entry): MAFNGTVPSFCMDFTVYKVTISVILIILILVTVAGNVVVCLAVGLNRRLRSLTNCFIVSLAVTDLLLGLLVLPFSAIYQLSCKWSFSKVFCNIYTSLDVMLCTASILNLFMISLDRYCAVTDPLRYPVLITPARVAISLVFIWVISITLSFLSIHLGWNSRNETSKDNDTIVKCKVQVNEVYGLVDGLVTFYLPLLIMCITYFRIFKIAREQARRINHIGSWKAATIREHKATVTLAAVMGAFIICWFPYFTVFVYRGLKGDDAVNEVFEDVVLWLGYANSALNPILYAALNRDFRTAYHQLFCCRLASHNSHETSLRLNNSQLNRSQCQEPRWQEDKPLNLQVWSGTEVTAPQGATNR
Protocol: The myocardial preparation, loaded with 1 g isometric tension, was allowed to stabilize 60 minutes, and myocardial contractions were recorded through an isometric lever connected to a strain-gauge coupler and the instantaneous rate was monitored with a cardiotachometer, and a heatwriting pen recorder. After two control responses to histamine (10^-6 g.ml^-1) the test compound was added to the bath at the desired final concentration and left for 30 minutes before the atria were again challenged with histamine. The chronotropic response obtained in the presence of the antagonist was then compared to the control response to histamine, and the percent reduction of the histamine H2 -evoked response was calculated. […] 3, Smooth muscle, Ed. Daniel E. E. Paton, M., Plenum Press, New York, (1975); Ash and Schild, Br. J. Pharmacol. Chemother. 27, 427-439, 1966.

histamine H2 -receptors [2] = molecular target: T2, histamine H2 -receptors (Rattus norvegicus, UniProt P25102); test: In vivo antisecretory activity in histamine-induced gastric secretion (stomach-perfused rat); settings: i.v., histamine 1 mg.kg^-1 hr^-1 intravenous, urethane anesthesia, values expressed taking the compound as a base
T2 construct: from tissue; host or cells: stomach of the living, anaesthetised rat (in vivo)
T2 sequence (P25102 whole entry, the tested form may be a part): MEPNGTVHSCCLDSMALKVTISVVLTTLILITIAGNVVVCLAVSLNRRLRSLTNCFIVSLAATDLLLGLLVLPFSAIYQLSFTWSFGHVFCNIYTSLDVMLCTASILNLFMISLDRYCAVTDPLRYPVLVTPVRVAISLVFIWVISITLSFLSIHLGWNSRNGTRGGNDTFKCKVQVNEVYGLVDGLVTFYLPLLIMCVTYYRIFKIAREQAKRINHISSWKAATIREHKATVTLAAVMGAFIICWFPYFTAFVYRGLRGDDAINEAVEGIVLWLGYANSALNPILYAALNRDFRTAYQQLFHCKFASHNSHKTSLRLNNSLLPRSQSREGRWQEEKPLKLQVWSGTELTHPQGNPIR
Text: The ability of the test compounds to inhibit histamine-induced gastric secretion of acid was investigated after intravenous or intraduodenal administration in stomach-perfused rats, according to Gosh and Schild (Br. J. Pharmacol. Chemother. 13, 54, 1958).
The preparation of the animals under general anesthesia (urethane, lg.kg^-1 i.p.) and constant temperature, was achieved by inserting and tying in place polyethylene tubes (PE 50) in the esophagus and in the pyloric-antral region. After the stomach was washed to remove residual of foods, continuous perfusion of the stomach was started with saline, 0.5 ml.min^-1 (37° C.), primed by a Jobling peristaltic pump. After 30 minutes of perfusion adaptation, the stomach perfusate was collected in 30 minute samples, and titrated for acid content, expressed as μEq of NaOH 1N. As control acid output became constant, intravenous perfusion of histamine (1 mg.kg^-1 hr^-1) was started and maintained throughout the experimental period. After the acid secretion had reached the steadily higher level, increasing doses of the test compound were injected intravenously in order to obtain dose-response functions. The ED50 was then calculated by standard procedure.

EC50 (histamine H2 -receptors [1]) [nM]	ED50 (histamine H2 -receptors [2]) [mg/kg]	SMILES	effect on gastric acid secretion (gastric acid secretion)
		C/N=C(\S)NCCSCc1[nH]cnc1C [metiamide]	capable of antagonizing gastric acid secretion
		CNC(=NCCSCc1csc(N=C(N)N)n1)NC#N [tiotidine]	capable of antagonizing gastric acid secretion to a greater extent than cimetidine
		COc1ccc(CN(CCN(C)C)c2ccccn2)cc1 [mepyramine]	no effect on gastric acid secretion
309	0.078	CCCCNC=Nc1ccc(-c2c[nH]cn2)cc1C [6 (k), N-n-Butyl-N'-[4-(imidazol-4-yl)-2-methyl-phenyl]-formamidine]	
320	0.083	CCOCSCCNC=Nc1ccc(-c2c[nH]cn2)cc1 [8 (b), N-(2-Ethoxymethylthio-ethyl)-N'-[4-(imidazol-4-yl)-phenyl]-formamidine]	
1270	0.043	CC(O)CNC=Nc1ccc(-c2c[nH]cn2)cc1 (stereo not drawn) [6 (a), N-(2-hydroxypropyl)-N'-[4-(imidazol-4-yl)-phenyl]-formamidine]	
327	0.022	CSCCNC=Nc1ccc(-c2c[nH]cn2)cc1 [6 (b), N-(2-Methylthio-ethyl)-N'-[4-(imidazol-4-yl)-phenyl]-formamidine]	
294	0.09	C=CCNC=Nc1ccc(-c2c[nH]cn2)cc1C [6 (l), N-Allyl-N'-[4-(imidazol-4-yl)-2-methyl-phenyl]-formamidine]	
		CNC(=S)NCCCCc1cnc[nH]1 [burimamide]	capable of antagonizing gastric acid secretion
600	0.059	CCCNC=Nc1ccc(-c2c[nH]cn2)cc1OC [6 (m), N-Propyl-N'-[2-methoxy-4-(imidazol-4-yl)-phenyl]-formamidine]	
		CN/C(=N/CCSCc1nc[nH]c1C)NC#N [CIMETIDINE, cimetidine]	capable of antagonizing gastric acid secretion
588	0.05	COCCN=CNc1ccc(-c2c[nH]cn2)cc1 [Example 6, N-(2-Methoxy-ethyl)-N'-[4-(imidazol-4-yl)-phenyl]-formamidine]	
350	0.117	CCCNC=Nc1ccc(-c2c[nH]cn2)cc1Br [8 (c), N-n-Propyl-N'-[2-bromo-4-(imidazol-4-yl)-phenyl]-formamidine]	
1600	0.046	N#CCCNC=Nc1ccc(-c2c[nH]cn2)cc1 [6 (j), N-(2-Cyano-ethyl)-N'-[4-(imidazol-4-yl)-phenyl]-formamidine]	
		CNC(=C[N+](=O)[O-])NCCSCc1ccc(CN(C)C)o1 [ranitidine]	capable of antagonizing gastric acid secretion to a greater extent than cimetidine
